# Patent US20230138395A1, “PHARMACEUTICAL COMPOSITIONS OF A THERAPEUTIC POLYENE MACROLIDE AND METHODS OF THEIR USE” (priority 2020, published 2023)
# Several values for one entry are separate records, joined by “and”; a condition that tells them apart may be missing. Equal entries are not always repeated. Where two headings read alike, the source gives them in different places.
# Experiments:
# C. glabrata strains [1] = test: MFC determination; format: cell-based; design: MFC: unit not given beside the values; details: for MFC Range: C. glabrata strains; for MFC50 / MFC90: C. glabrata; for MFC50: kills 50% of strains; for MFC90: kills 90% of strains; for MFC: individual C. glabrata strain with elevated MICs to non-polyene comparators (Table 22)
# Penicillium strains = test: MIC testing (CLSI M38-A2); format: cell-based, Penicillium spp.; details: for MIC50 / MIC90: Penicillium; for MIC50: inhibits 50% of strains; for MIC90: inhibits 90% of strains
# C. albicans SC5314 = test: In vitro activity (MFC) against the infecting strain, Example 18; format: cell-based, Candida albicans; details: Candida albicans, read-out: MFC
# [2] = system: Candida albicans ATCC 10231; test: MIC50 growth inhibition assay of compositions (OD600), Example 12; format: cell-based; details: Candida albicans, concentration giving 50% growth inhibition, read-out: MIC50
# Method: Efficacy of the compositions was determined using Minimum Inhibitory Concentration assays, and the concentration of active compound giving 50% growth inhibition of the indicator organism was reported (MIC50). The assay was performed in well plates with two (Müller-Hinton medium) or three parallel (M19-medium) cell cultures for each condition.
# Cell Culture Medium: Müller-Hinton and M19 without NaCl.
# Indicator Organism: Candida albicans ATCC 10231
# Stock Solutions of the Active Compounds and Control: • Amphotericin B (USP): vacuum dried powder was dissolved in DMSO to 2.5 mg/mL giving a final concentration after inoculation of 2.5 μg/mL in the well with the highest concentration. • compound 1A (custom made): powder was dissolved in DMSO to 2.5 mg/mL giving a final concentration after inoculation of 2.5 μg/ml compound 1A in the well with the highest concentration. It is assumed that the batch is 70% pure. • Example 3 composition: the formulation was a suspension with 18 mg/mL nanoparticles. The suspension was diluted in a medium and C. albicans inoculum to a final concentration of 5 μg/mL of compound 1A and 130 μg/mL of […]. From this solution 10 dilutions were prepared giving 0.009 μg/ml compound 1A in the lowest concentration. • Empty poly(ethylbutyl cyanoacrylate) particles: empty poly(ethylbutyl cyanoacrylate) particles were used as a reference. The empty poly(ethylbutyl cyanoacrylate) was produced in the same manner as those in Examples 2 and 3, with the exception that they were prepared at pH 1, with vanillin concentration of 10% (w/w), and. The particles were diluted in the same manner as Example 3. The highest poly(ethylbutyl cyanoacrylate) concentration tested was 130 μg/mL.
# Growth measurements were performed at OD600.
# [3] = system: individual Aspergillus spp. (Table 14, species not named); test: MFC determination, Table 14; format: cell-based; details: Aspergillus sp. of Table 14; for MFC50: kills 50% of strains; for MFC90: kills 90% of strains
# Cr. neoformans strains = test: MIC testing (CLSI M27-A3, YNB, 72 h); format: cell-based, Cryptococcus neoformans; details: for MIC Range: Cr. neoformans strains, 72 h, in µg/mL; for MIC50 / MIC90: Cr. neoformans; for MIC50: inhibits 50% of strains; for MIC90: inhibits 90% of strains
# Candida albicans = test: MFC determination; format: cell-based; details: for MFC Range: in µg/mL; for MFC50: kills 50% of strains; for MFC90: kills 90% of strains; for MFC: individual C. albicans strain with elevated MICs to non-polyene comparators (Table 22)
# [4] = Solubility of Compound 1A in lipids, oils and acrylate monomers; format: physicochemical
# Excerpt: In General, the Constituents of a PACA Particle Contains: • Aqueous phase: Brij L35, Kolliphor HS15 and HCl to adjust pH • Oil phase: acrylate monomer (ethyl hexylcyanoacrylate, ethyl butylcyanoacrylate, 1-heptyl cyanoacrylate, and 2-phenylethyl cyanoacrylate/butyl cyanoacrylate), Miglyol, vanillin, Compound 1A.
# Lipid-based particles were investigated as a vehicle for Compound 1A.
# [5] = system: Blastomyces dermatitidis, Coccidioides immitis, and Histoplasma capsulatum strains; format: cell-based; details: dimorphic fungal isolates; in µg/mL
# [6] = system: Fusarium strains (Table 18); test: MFC determination, Table 18; format: cell-based, Fusarium spp.; details: for MFC50: kills 50% of strains; for MFC90: kills 90% of strains
# [7] = system: individual Aspergillus spp. (Table 15, species not named); test: MIC testing (CLSI M38-A2), Table 15; format: cell-based; details: Aspergillus sp. of Table 15, caspofungin read as MEC; for MIC50: inhibits 50% of strains; for MIC90: inhibits 90% of strains
# [8] = system: Fusarium strains (Table 18); test: MIC testing (CLSI M38-A2), Table 18; format: cell-based, Fusarium spp.; details: for MIC Range: in µg/mL; for MIC50: inhibits 50% of strains; for MIC90: inhibits 90% of strains
# C. tropicalis [9] = test: MIC testing (CLSI M27-A3); format: cell-based; details: for MIC Range: C. tropicalis strains, in µg/mL; for MIC50 / MIC90: C. tropicalis; for MIC50: inhibits 50% of strains; for MIC90: inhibits 90% of strains
# C. glabrata strains [10] = test: MIC testing (CLSI M27-A3); format: cell-based; design: MIC: unit not given beside the values; details: for MIC50 / MIC90: C. glabrata; for MIC50: inhibits 50% of strains; for MIC90: inhibits 90% of strains; for MIC: individual C. glabrata strain with elevated MICs to non-polyene comparators (Table 22)
# C. tropicalis [11] = test: MFC determination; format: cell-based; details: for MFC Range: C. tropicalis strains, in µg/mL; for MFC50 / MFC90: C. tropicalis; for MFC50: kills 50% of strains; for MFC90: kills 90% of strains
# [12] = system: individual Aspergillus spp. (Table 14, species not named); test: MIC testing (CLSI M38-A2), Table 14; format: cell-based; details: Aspergillus sp. of Table 14, caspofungin read as MEC; for MIC50: inhibits 50% of strains; for MIC90: inhibits 90% of strains
# [13] = system: individual Aspergillus spp. (Table 13, species not given); test: MIC testing (CLSI M38-A2), Table 13; format: cell-based; details: Aspergillus sp. of Table 13, caspofungin read as MEC; for MIC Range: in µg/mL; for MIC50: inhibits 50% of strains; for MIC90: inhibits 90% of strains
# Paecilomyces strains = test: MFC determination; format: cell-based, Paecilomyces spp.; details: Paecilomyces strains (5)
# [14] = Fluconazole-susceptible C. albicans n = 13
smiles,measurement,setting,value
C[C@@H]1[C@H](O)[C@@H](C)/C=C/C=C/C=C/C=C/C=C/C=C/C=C/[C@H](O[C@@H]2O[C@H](C)[C@@H](O)[C@H](N)[C@@H]2O)C[C@@H]2O[C@](O)(C[C@@H](O)[C@H](O)CC[C@@H](O)C[C@@H](O)C[C@@H](O)CC(=O)O[C@H]1C)C[C@H](O)[C@H]2C [Compound 1A],MFC Range,C. glabrata strains [1]; in µg/mL,0.5-2
same,MFC50,C. glabrata strains [1],1 mg/L
same,MFC90,C. glabrata strains [1],2 mg/L
same,MFC,C. glabrata strains [1],1 (5×) and 2
same,MIC Range,"Penicillium strains; Penicillium strains, in µg/mL",0.5-2
same,MIC50,Penicillium strains,2 mg/L
same,MIC90,Penicillium strains,2 mg/L
same,MFC,C. albicans SC5314,0.5 mg/L
same,MIC50,"[2]; ATCC10231, M19 medium",0.18 mg/L
same,MIC50,"[2]; ATCC10231, Müller-Hinton medium",0.06 mg/L
same,MFC50,[3],2 mg/L
same,MFC90,[3],4 mg/L
same,MIC Range,Cr. neoformans strains,0.5-2
same,MIC50,Cr. neoformans strains,1 mg/L
same,MIC90,Cr. neoformans strains,1 mg/L
same,MFC Range,Candida albicans; [14],0.125-1
same,MFC50,Candida albicans; [14],0.5 mg/L
same,MFC90,Candida albicans; [14],1 mg/L
same,MFC,Candida albicans,1 (5×) and >4 and 2
same,solubility,[4]; in 1-heptyl cyanoacrylate and 2-phenylethyl cyanoacrylate/butyl cyanoacrylate,unable to dissolve
same,solubility,[4]; in the tested oils and lipids listed,None of the tested oils or lipids dissolved Compound 1A well
same,solubility,[4]; in trans-cinnamaldehyde,somewhat soluble
same,MIC Range,[5],<0.03-0.25
same,MFC50,[6],2 mg/L
same,MFC90,[6],> 4 mg/L
same,MIC Range,[7]; in µg/mL,0.5-4
same,MIC50,[7],2 mg/L
same,MIC90,[7],4 mg/L
same,MIC Range,[8],1-4
same,MIC50,[8],2 mg/L
same,MIC90,[8],4 mg/L
same,MIC Range,C. tropicalis [9],0.5-8
same,MIC50,C. tropicalis [9],1 mg/L
same,MIC90,C. tropicalis [9],8 mg/L
same,MIC Range,"C. glabrata strains [10]; C. glabrata strains, in µg/mL",0.25-2
same,MIC50,C. glabrata strains [10],1 mg/L
same,MIC90,C. glabrata strains [10],2 mg/L
same,MIC,C. glabrata strains [10],1 (5×) and 2
same,MFC Range,C. tropicalis [11],0.5-16
same,MFC50,C. tropicalis [11],1 mg/L
same,MFC90,C. tropicalis [11],8 mg/L
same,MIC Range,[12]; in µg/mL,1-2
same,MIC50,[12],2 mg/L
same,MIC90,[12],2 mg/L
same,MIC Range,[13],1-2
same,MIC50,[13],1 mg/L
same,MIC90,[13],2 mg/L
"OC(Cn1cncn1)(Cn1cncn1)c1ccc(F)cc1F [Fluconazole, fluconazole]",MFC Range,C. glabrata strains [1]; in µg/mL,>64
same,MFC50,C. glabrata strains [1],> 64 mg/L
same,MFC90,C. glabrata strains [1],> 64 mg/L
same,MFC,C. glabrata strains [1]; in µg/mL,>64
same,MIC50,Penicillium strains,> 64 mg/L
same,MIC90,Penicillium strains,> 64 mg/L
same,MFC,C. albicans SC5314,> 64 mg/L
same,MFC Range,[3],> 64 mg/L
same,MFC50,[3],> 64 mg/L
same,MFC90,[3],> 64 mg/L
same,MIC Range,Cr. neoformans strains,<0.06-16
same,MIC50,Cr. neoformans strains,2 mg/L
same,MIC90,Cr. neoformans strains,8 mg/L
same,MFC Range,Candida albicans; Fluconazole-resistant C. albicans n = 7,>32
same,MFC50,Candida albicans; [14],> 32 mg/L
same,MFC90,Candida albicans; [14],> 32 mg/L
same,MFC,Candida albicans; listed as Flu,>32 (6×) and >64
same,MFC Range,[6],> 32 mg/L
same,MFC50,[6],> 32 mg/L
same,MFC90,[6],> 32 mg/L
same,MIC50,[7],64 mg/L
same,MIC90,[7],> 64 mg/L
same,MIC Range,[8],>32
same,MIC50,[8],> 32 mg/L
same,MIC90,[8],> 32 mg/L
same,MIC Range,C. tropicalis [9],0.25-2
same,MIC50,C. tropicalis [9],0.25 mg/L
same,MIC90,C. tropicalis [9],0.5 mg/L
same,MIC50,C. glabrata strains [10],8 mg/L
same,MIC90,C. glabrata strains [10],> 64 mg/L
same,MIC,C. glabrata strains [10]; listed as Flu,32 and 2 and >64 (2×) and 8 and 64
same,MFC Range,C. tropicalis [11],>64
same,MFC50,C. tropicalis [11],> 64 mg/L
same,MFC90,C. tropicalis [11],> 64 mg/L
same,MFC Range,Paecilomyces strains,> 64 mg/L
same,MIC50,[12],> 64 mg/L
same,MIC90,[12],> 64 mg/L
same,MIC Range,[13],64
same,MIC50,[13],64 mg/L
same,MIC90,[13],64 mg/L
